Here are results for four compounds from patent US20230085307A1, “PYRIDAZINONE COMPOUND AND HERBICIDE” (NISSAN CHEMICAL CORPORATION, priority 2019, published 2023).

The test system of test [1] is persian speedwell. In words: Test Example 5: herbicidal effect by foliage application, plastic box (Table 20, symbol R). In kind it is in vivo, Persian speedwell (Veronica persica). As to conditions: foliage application, 320 g/ha, three weeks after application. The essentials:
(§1)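 Plants were sown into sterilized diluvial soil under about 1.5 cm cover and kept in a greenhouse at 25° C. to 30° C. Fourteen days on, foliage received an even spray of the diluted emulsion. Herbicidal or crop effect was judged three weeks afterwards.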

The subject of a further test is oval-leafed pondweed. In words: Test Example 1: herbicidal activity, application before weed generation under submerged conditions (Table 16, symbol C). The following applies: amount of applied herbicide 320 g/ha. It is filed as in vivo, oval-leafed pondweed (Monochoria vaginalis). The method in brief: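 Submerged Wagner pots (alluvial soil, 4 cm water) sown with weed seeds and planted with 2.5-leaf rice seedlings; emulsifiable concentrate diluted in water applied to water surface on sowing day. Held in greenhouse at 25-30 °C; injury scored 0-5 by herbicidal rate after three weeks.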

Test [2] deals with velvetleaf. In words: Test Example 5: herbicidal effect by foliage application, plastic box (Table 20, symbol M). The following applies: foliage application, 320 g/ha, three weeks after application. In kind it is in vivo, velvetleaf (Abutilon theophrasti). The method in brief: as §1
Test [3] has as its system windgrass. In words: Test Example 5: herbicidal effect by foliage application, plastic box (Table 20, symbol L). In kind it is in vivo, windgrass (Apera spica-venti). As to conditions: foliage application, 320 g/ha, three weeks after application. The essentials: as §1
For another test, the system named is Chinese sprangletop. In words: Test Example 3: herbicidal effect by foliage application, Wagner pot (Table 18, symbol D). The following applies: 320 g/ha. It is filed as in vivo, chinese sprangletop (Leptochloa chinensis). The essentials:
(§2)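 Plants were sown in alluvial soil held under 0.1–0.5 cm standing water and grown 14 days in a greenhouse at 25–30 °C. An emulsifiable formulation, water-diluted to the set dose, was then sprayed onto the foliage, and effects were scored three weeks later using previously defined criteria.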

The test system of the next test is barnyard grass. In words: Test Example 3: herbicidal effect by foliage application, Wagner pot (Table 18, symbol H). It is filed as in vivo, barnyard grass (Echinochloa crus-galli). The following applies: 320 g/ha. The method in brief:
as §2

The test system of test [4] is velvetleaf. Nature of the test: Test Example 4: herbicidal effect by soil treatment (Table 19, symbol M). In kind it is in vivo, velvetleaf (Abutilon theophrasti). As to conditions: amount of applied herbicide 320 g/ha. The essentials: (§3)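 In this soil treatment, the formulated compound reached the seeds only through the soil: seeds were buried about 1.5 cm deep in sterilized diluvial soil, then the diluted emulsion was sprayed over the surface. After three weeks at 25° C. to 30° C. in a greenhouse, effects were graded on criteria from an earlier test.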

The test system of a further test is southern crabgrass. In words: Test Example 5: herbicidal effect by foliage application, plastic box (Table 20, symbol F). In kind it is in vivo, southern crabgrass (Digitaria ciliaris). As to conditions: foliage application, 320 g/ha, three weeks after application. The essentials:
as §1

Another test deals with late watergrass. In words: Test Example 2: herbicidal activity, application during weed generation under submerged conditions (Table 17, symbol A). It is filed as in vivo, late watergrass (Echinochloa oryzicola). As to conditions: AAH 320 g/ha; application during weed generation, submerged conditions. The method in brief:
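3-wk visual-criteria score after one water-surface dose. Emulsion formulation, water-diluted to set rate; applied at 1–2 leaf stage; alluvial soil, 4 cm standing water; seeds co-sown; greenhouse 25–30° C.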

For the next test, the system named is green foxtail. In words: Test Example 4: herbicidal effect by soil treatment (Table 19, symbol G). It is filed as in vivo, green foxtail (Setaria viridis). The following applies: amount of applied herbicide 320 g/ha. The method in brief: as §3
The test system of the next test is Italian ryegrass. Nature of the test: Test Example 5: herbicidal effect by foliage application, plastic box (Table 20, symbol K). The following applies: foliage application, 320 g/ha, three weeks after application. It is filed as in vivo, Italian ryegrass (Lolium multiflorum). The method in brief:
as §1

In test [5] the test system is lambsquarters. In words: Test Example 4: herbicidal effect by soil treatment (Table 19, symbol O). It is filed as in vivo, lambsquarters (Chenopodium album). The following applies: amount of applied herbicide 320 g/ha. The method in brief:
as §3

The next test has as its system rice flat sedge. Nature of the test: Test Example 3: herbicidal effect by foliage application, Wagner pot (Table 18, symbol E). It is filed as in vivo, rice flat sedge (Cyperus iria). As to conditions: 320 g/ha. The essentials:
as §2

The subject of test [6] is lambsquarters. Nature of the test: Test Example 5: herbicidal effect by foliage application, plastic box (Table 20, symbol O). In kind it is in vivo, lambsquarters (Chenopodium album). The following applies: foliage application, 320 g/ha, three weeks after application. The method in brief:
as §1

The test system of test [7] is windgrass. Nature of the test: Test Example 4: herbicidal effect by soil treatment (Table 19, symbol L). The following applies: amount of applied herbicide 320 g/ha. It is filed as in vivo, windgrass (Apera spica-venti). The method in brief:
as §3

The test system of the next test is chickweed. In words: Test Example 4: herbicidal effect by soil treatment (Table 19, symbol P). As to conditions: amount of applied herbicide 320 g/ha. In kind it is in vivo, common chickweed (Stellaria media). The method in brief:
as §3

Test [8] relates to persian speedwell. Nature of the test: Test Example 4: herbicidal effect by soil treatment (Table 19, symbol R). As to conditions: amount of applied herbicide 320 g/ha. In kind it is in vivo, Persian speedwell (Veronica persica). The essentials: as §3

Consider `CCCC(=O)Oc1c(C)nn(C)c(=O)c1-c1c(-c2ccc(OC)cc2)sc2cc(OC)ccc12` [3-069], for which the “R: persian speedwell, herbicidal effect grade” value (shortened to “R: persian speedwell”) in the test on persian speedwell [1] was 5 (Herbicidal rate of 90% or more (almost completely withered)); in the test with persian speedwell [8], 4 (Herbicidal rate of 70% or more and less than 90%). In the test with oval-leafed pondweed, the “Herbicidal effect, C: oval-leafed pondweed” value (from here on “Herbicidal effect, C”) was 2 (Herbicidal rate of 20% or more and less than 40%). Further, the results for the “M: velvetleaf, herbicidal effect grade” value in the test with velvetleaf [2] and in the test with velvetleaf [4] were 5 (Herbicidal rate of 90% or more (almost completely withered)) and 0 (Herbicidal rate of 5% or less (almost no effect)), respectively. The “L: windgrass, herbicidal effect grade” value is 3 (Herbicidal rate of 40% or more and less than 70%) in the test on windgrass [3]; 0 (Herbicidal rate of 5% or less (almost no effect)) with windgrass [7]. Moreover, the “herbicidal effect on Chinese sprangletop (D)” value (from here on “herbicidal effect … (D)”) in the test with Chinese sprangletop is recorded as 0 (Herbicidal rate of 5% or less (almost no effect)). In addition, in the test with barnyard grass, the “herbicidal effect on barnyard grass (H)” value is listed as 0 (Herbicidal rate of 5% or less (almost no effect)). Further, the “F: southern crabgrass, herbicidal effect grade” value (“F: southern crabgrass” below) with southern crabgrass is on record as 0 (Herbicidal rate of 5% or less (almost no effect)). In addition, the “herbicidal effect rating, A: late watergrass” value (“herbicidal effect rating” for short) in the test with late watergrass is on record as 0 (Herbicidal rate of 5% or less (almost no effect)). Moreover, the “G: green foxtail, herbicidal effect grade” value (“G: green foxtail” below) in the test on green foxtail is 2 (Herbicidal rate of 20% or more and less than 40%). The “K: Italian ryegrass, herbicidal effect grade” value (“K: Italian ryegrass” below) in the test on Italian ryegrass was 3 (Herbicidal rate of 40% or more and less than 70%). The “O: lambsquarters, herbicidal effect grade” value (shortened to “O: lambsquarters”) in the test on lambsquarters [5] is listed as 0 (Herbicidal rate of 5% or less (almost no effect)); in the test on lambsquarters [6] it was 5 (Herbicidal rate of 90% or more (almost completely withered)). In addition, the “herbicidal effect on rice flat sedge (E)” value in the test with rice flat sedge is 3 (Herbicidal rate of 40% or more and less than 70%). The “P: chickweed, herbicidal effect grade” value in the test with chickweed is 3 (Herbicidal rate of 40% or more and less than 70%).

With `CCOc1ccc(-c2sc3cc(OC)ccc3c2-c2c(O)c(C)nn(C)c2=O)cc1` [3-072], the “R: persian speedwell” value in the test with persian speedwell [1] and with persian speedwell [8] was 5 (Herbicidal rate of 90% or more (almost completely withered)) throughout. Moreover, in the test with oval-leafed pondweed, the “Herbicidal effect, C” value was 4 (Herbicidal rate of 70% or more and less than 90%). In addition, the “M: velvetleaf, herbicidal effect grade” value in the test with velvetleaf [2] was 3 (Herbicidal rate of 40% or more and less than 70%); in the test with velvetleaf [4], 0 (Herbicidal rate of 5% or less (almost no effect)). For the same compound, the “L: windgrass, herbicidal effect grade” value in the test on windgrass [3] and with windgrass [7] was 0 (Herbicidal rate of 5% or less (almost no effect)) throughout. Also, in the test with Chinese sprangletop, the “herbicidal effect … (D)” value was 3 (Herbicidal rate of 40% or more and less than 70%). The “herbicidal effect on barnyard grass (H)” value with barnyard grass was 4 (Herbicidal rate of 70% or more and less than 90%). In addition, the “F: southern crabgrass” value in the test on southern crabgrass is listed as 0 (Herbicidal rate of 5% or less (almost no effect)). The “herbicidal effect rating” value in the test on late watergrass is 3 (Herbicidal rate of 40% or more and less than 70%). The “G: green foxtail” value in the test with green foxtail is 0 (Herbicidal rate of 5% or less (almost no effect)). In addition, in the test with Italian ryegrass, the “K: Italian ryegrass” value is 4 (Herbicidal rate of 70% or more and less than 90%). The “O: lambsquarters” value was 2 (Herbicidal rate of 20% or more and less than 40%) in the test with lambsquarters [5]; 5 (Herbicidal rate of 90% or more (almost completely withered)) in the test on lambsquarters [6]. Further, in the test on rice flat sedge, the “herbicidal effect on rice flat sedge (E)” value is 4 (Herbicidal rate of 70% or more and less than 90%). Besides, the “P: chickweed, herbicidal effect grade” value in the test on chickweed was 5 (Herbicidal rate of 90% or more (almost completely withered)).

Turning to `COc1ccc2c(-c3c(O)c(C)nn(C)c3=O)c(-c3ccc(F)cc3OC)sc2c1` [3-076], the “R: persian speedwell” value in the test on persian speedwell [1] was 4 (Herbicidal rate of 70% or more and less than 90%); in the test on persian speedwell [8], 5 (Herbicidal rate of 90% or more (almost completely withered)). Further, in the test with oval-leafed pondweed, the “Herbicidal effect, C” value is 5 (Herbicidal rate of 90% or more (almost completely withered)). For the same compound, the “M: velvetleaf, herbicidal effect grade” value in the test with velvetleaf [2] was 3 (Herbicidal rate of 40% or more and less than 70%); in the test with velvetleaf [4] it was 0 (Herbicidal rate of 5% or less (almost no effect)). For the same compound, the “L: windgrass, herbicidal effect grade” value in the test with windgrass [3] and with windgrass [7] was 5 (Herbicidal rate of 90% or more (almost completely withered)) each time. Moreover, the “herbicidal effect … (D)” value with Chinese sprangletop was 3 (Herbicidal rate of 40% or more and less than 70%). Further, the “herbicidal effect on barnyard grass (H)” value in the test with barnyard grass is 5 (Herbicidal rate of 90% or more (almost completely withered)). For the same compound, in the test with southern crabgrass, the “F: southern crabgrass” value was 3 (Herbicidal rate of 40% or more and less than 70%). Moreover, in the test on late watergrass, the “herbicidal effect rating” value was 3 (Herbicidal rate of 40% or more and less than 70%). Also, in the test on green foxtail, the “G: green foxtail” value is on record as 5 (Herbicidal rate of 90% or more (almost completely withered)). For the same compound, in the test on Italian ryegrass, the “K: Italian ryegrass” value was 4 (Herbicidal rate of 70% or more and less than 90%). The “O: lambsquarters” value is 4 (Herbicidal rate of 70% or more and less than 90%) in the test with lambsquarters [5]; 5 (Herbicidal rate of 90% or more (almost completely withered)) with lambsquarters [6]. Also, in the test with rice flat sedge, the “herbicidal effect on rice flat sedge (E)” value is 5 (Herbicidal rate of 90% or more (almost completely withered)). In addition, in the test with chickweed, the “P: chickweed, herbicidal effect grade” value was 2 (Herbicidal rate of 20% or more and less than 40%).

On to `CCOc1ccccc1-c1sc2cc(OC)ccc2c1-c1c(O)c(C)nn(CC)c1=O` [3-085], for which the “R: persian speedwell” value in the test with persian speedwell [1] and in the test with persian speedwell [8] was 5 (Herbicidal rate of 90% or more (almost completely withered)) in each case. Besides, in the test on oval-leafed pondweed, the “Herbicidal effect, C” value is 4 (Herbicidal rate of 70% or more and less than 90%). Also, the “M: velvetleaf, herbicidal effect grade” value is listed as 5 (Herbicidal rate of 90% or more (almost completely withered)) in the test on velvetleaf [2] and 0 (Herbicidal rate of 5% or less (almost no effect)) with velvetleaf [4]. Further, the “L: windgrass, herbicidal effect grade” value in the test on windgrass [3] was 4 (Herbicidal rate of 70% or more and less than 90%); in the test with windgrass [7], 0 (Herbicidal rate of 5% or less (almost no effect)). Further, the “herbicidal effect … (D)” value in the test on Chinese sprangletop is 0 (Herbicidal rate of 5% or less (almost no effect)). Moreover, in the test on barnyard grass, the “herbicidal effect on barnyard grass (H)” value is 5 (Herbicidal rate of 90% or more (almost completely withered)). Besides, the “F: southern crabgrass” value in the test on southern crabgrass was 5 (Herbicidal rate of 90% or more (almost completely withered)). In addition, the “herbicidal effect rating” value in the test with late watergrass was 0 (Herbicidal rate of 5% or less (almost no effect)). The “G: green foxtail” value in the test with green foxtail was 3 (Herbicidal rate of 40% or more and less than 70%). Besides, in the test on Italian ryegrass, the “K: Italian ryegrass” value is 0 (Herbicidal rate of 5% or less (almost no effect)). Also, the “O: lambsquarters” value in the test with lambsquarters [5] was 3 (Herbicidal rate of 40% or more and less than 70%); in the test on lambsquarters [6], 3 (Herbicidal rate of 40% or more and less than 70%). Besides, the “herbicidal effect on rice flat sedge (E)” value with rice flat sedge was 4 (Herbicidal rate of 70% or more and less than 90%). Further, in the test with chickweed, the “P: chickweed, herbicidal effect grade” value is 3 (Herbicidal rate of 40% or more and less than 70%).
